According to the supplement of paper PMC10307832:

Key:
Assay in all cases: relative viability (nuclei count vs DMSO), 5 days (fraction); higher = more cells survive
Fedratinib + Foretinib = compound: Cc1cnc(Nc2ccc(OCCN3CCCC3)cc2)nc1Nc1cccc(S(=O)(=O)NC(C)(C)C)c1 [Fedratinib] + COc1cc2c(Oc3ccc(NC(=O)C4(C(=O)Nc5ccc(F)cc5)CC4)cc3F)ccnc2cc1OCCCN1CCOCC1 [Foretinib] (partner 0.25 µM)
In short: (§1)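 Each reported value is a median over duplicate plates. It expresses relative viability: treated-well nuclei count divided by vehicle-well nuclei count. Lung cancer cell lines in 1536-well plates were dosed by pin tool a day after seeding, alone with one drug or with a fixed anchor-drug dose plus five library-drug doses (not always all listed) in √10 steps, and nuclei were counted after 5 days.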

Fedratinib + Pictilisib = compound: Cc1cnc(Nc2ccc(OCCN3CCCC3)cc2)nc1Nc1cccc(S(=O)(=O)NC(C)(C)C)c1 [Fedratinib] + CS(=O)(=O)N1CCN(Cc2cc3nc(-c4cccc5[nH]ncc45)nc(N4CCOCC4)c3s2)CC1 [Pictilisib] (partner 1 µM)
In short: as §1

Fedratinib + Pemetrexed = compound: Cc1cnc(Nc2ccc(OCCN3CCCC3)cc2)nc1Nc1cccc(S(=O)(=O)NC(C)(C)C)c1 [Fedratinib] + Nc1nc2[nH]cc(CCc3ccc(C(=O)N[C@@H](CCC(=O)O)C(=O)O)cc3)c2c(=O)[nH]1 [Pemetrexed] (partner 0.2 µM)
In short: as §1

GW-2580 + Pemetrexed = compound: COC1=CC=C(C=C1)COC2=C(C=C(C=C2)CC3=CN=C(N=C3N)N)OC [GW-2580] + Nc1nc2[nH]cc(CCc3ccc(C(=O)N[C@@H](CCC(=O)O)C(=O)O)cc3)c2c(=O)[nH]1 [Pemetrexed] (partner 0.2 µM)
In short: as §1

GW-2580 + Crizotinib = compound: COC1=CC=C(C=C1)COC2=C(C=C(C=C2)CC3=CN=C(N=C3N)N)OC [GW-2580] + C[C@@H](Oc1cc(-c2cnn(C3CCNCC3)c2)cnc1N)c1c(Cl)ccc(F)c1Cl [Crizotinib] (partner 1 µM)
In short: as §1

Fedratinib + Trametinib = compound: Cc1cnc(Nc2ccc(OCCN3CCCC3)cc2)nc1Nc1cccc(S(=O)(=O)NC(C)(C)C)c1 [Fedratinib] + CC(=O)Nc1cccc(-n2c(=O)n(C3CC3)c(=O)c3c(Nc4ccc(I)cc4F)n(C)c(=O)c(C)c32)c1 [Trametinib] (partner 0.02 µM)
In short: as §1

Row | Cell Line | relative viability (Fedratinib + Foretinib; first compound 0.1 µM) | relative viability (Fedratinib + Foretinib; first compound 0.3162 µM) | relative viability (Fedratinib + Foretinib; first compound 1 µM) | relative viability (Fedratinib + Pictilisib; first compound 0.1 µM) | relative viability (Fedratinib + Pictilisib; first compound 0.3162 µM) | relative viability (Fedratinib + Pictilisib; first compound 1 µM) | relative viability (Fedratinib + Pemetrexed; first compound 0.1 µM) | relative viability (Fedratinib + Pemetrexed; first compound 0.3162 µM) | relative viability (Fedratinib + Pemetrexed; first compound 1 µM) | relative viability (GW-2580 + Pemetrexed; first compound 0.08 µM) | relative viability (GW-2580 + Pemetrexed; first compound 0.8 µM) | relative viability (GW-2580 + Pemetrexed; first compound 2.53 µM) | relative viability (GW-2580 + Pemetrexed; first compound 8 µM) | relative viability (GW-2580 + Crizotinib; first compound 0.08 µM) | relative viability (GW-2580 + Crizotinib; first compound 0.8 µM) | relative viability (GW-2580 + Crizotinib; first compound 2.53 µM) | relative viability (GW-2580 + Crizotinib; first compound 8 µM) | relative viability (Fedratinib + Trametinib; first compound 0.1 µM) | relative viability (Fedratinib + Trametinib; first compound 0.3162 µM) | relative viability (Fedratinib + Trametinib; first compound 1 µM)
1 | NCI-H1666 | 0.927 | 0.991 | 0.962 | 0.409 | 0.38 | 0.224 | 0.793 | 0.869 | 0.831 | 0.863 | 0.91 | 0.901 | 0.787 | 1.01 | 0.984 | 1.17 | 0.926 | 1 | 0.824 | 0.861
2 | HCC-366 | 0.918 | 0.922 | 0.911 | 0.136 | 0.0976 | 0.19 | 0.154 | 0.168 | 0.142 | 0.194 | 0.145 | 0.16 | 0.121 | 0.618 | 0.581 | 0.334 | 0.509 | 0.363 | 0.36 | 0.257
3 | SK-MES-1 | 0.865 | 1.07 | 0.795 | 0.314 | 0.38 | 0.283 | 1.01 | 0.947 | 0.811 | 1.01 | 1.04 | 0.878 | 0.824 | 1.01 | 1.04 | 0.871 | 1 | 0.547 | 0.581 | 0.476
4 | SW 1573 | 0.906 | 0.947 | 0.807 | 0.444 | 0.391 | 0.463 | 0.753 | 0.857 | 0.673 | 0.908 | 0.883 | 0.861 | 0.639 | 0.73 | 0.764 | 0.803 | 0.643 | 0.489 | 0.538 | 0.402
5 | NCI-H661 | 0.959 | 1.1 | 1 | 0.404 | 0.355 | 0.329 | 0.939 | 0.928 | 0.883 | 1.04 | 0.901 | 0.957 | 0.782 | 0.983 | 1.22 | 0.917 | 0.843 | 0.511 | 0.622 | 0.409
6 | PC-3 [JPC-3] | 0.982 | 1.08 | 1.06 | 0.694 | 0.836 | 0.56 | 1.04 | 1.23 | 1.03 | 0.908 | 1.39 | 0.861 | 0.658 | 0.985 | 1.08 | 0.98 | 0.945 | 0.561 | 0.757 | 0.655
7 | NCI-H1623 | 0.839 | 0.876 | 0.817 | – | – | – | – | – | – | – | – | – | – | – | – | – | – | – | – | –
8 | Calu-6 | 0.855 | 0.857 | 0.784 | 0.845 | 0.866 | 0.736 | – | – | – | – | – | – | – | 0.85 | 0.857 | 0.769 | 0.674 | – | – | –
9 | LC-2-ad | 1.02 | 1.01 | 0.784 | 0.422 | 0.531 | 0.115 | 0.284 | 0.267 | 0.277 | 0.268 | 0.285 | 0.253 | 0.278 | 0.484 | 0.527 | 0.462 | 0.459 | 0.898 | 0.904 | 0.933
